Assay results from patent US20260199362A1, “VITAMIN B2 FOR USE IN IMPROVING GUT HEALTH” (DSM IP Assets B.V., priority 2022, published 2026).

Test system: Lactobacillus rhamnosus GG (Lactobacillus rhamnosus DSM 32550)
Experiment: Short-term batch-fermentation colon model (M-SHIME) with qPCR of Lactobacillus rhamnosus GG level
Format: cell-based
Method: A short-term batch-fermentation experiment was carried out by ProDigest, consisting of a colonic incubation of a representative dose of a selected vitamin with a representative bacterial inoculum under simulated conditions for the proximal large intestine. In the current experiment, the bacterial inocula were derived from fresh fecal samples of six different healthy adult donors. […]
In this study, the Lactobacillus rhamnosus GG equivalent Lactobacillus rhamnosus DSM 32550 (Biocare Copenhagen) was added to the colon model containing the donor samples, alone or in combination with vitamin B2 (see Table 1). After 48 h of incubation, the abundance of the added strain was analyzed using primers that are specific for Lactobacillus rhamnosus GG and its equivalent Lactobacillus rhamnosus DSM 32550. […]
qPCR was performed on putative phage tail protein gene (NCBI reference NC_013198) to monitor the level of the supplemented probiotic Lactobacillus rhamnosus GG strain within the gut microbiome, as described previously (Brandt, Alatossava (2003)-Specific identification of certain probiotic Lactobacillus rhamnosus strains with PCR primers based on phage-related sequences). Samples were analyzed from the mucus environment following 48 h of incubation. […]

Cc1cc2nc3c(=O)[nH]c(=O)nc-3n(C[C@H](O)[C@H](O)[C@H](O)CO)c2cc1C [vitamin B2, riboflavin]
copies of the Lactobacillus rhamnosus GG specific putative phage tail protein gene relative to control (Lactobacillus rhamnosus GG alone) (vitamin B2 0.01667 g/L co-supplemented with L. rhamnosus GG 1*10^9 CFU, mucus environment, 48 h colonic incubation, fecal inocula of six healthy human donors, average, qPCR): around three
levels of Lactobacillus rhamnosus GG in the colon model, as compared to the respective control (vitamin B2 0.01667 g/L co-supplemented with L. rhamnosus GG, 48 h, six human donors, paired t-test, p<0.05): significantly increased
